In US20240173323A1, “COMBINATION THERAPY FOR CANCER TREATMENT” (Takeda Pharmaceutical Company Limited, priority 2021, published 2024):
Entries after “also recorded” stand apart in the source; their conditions may differ.

Tested on: PHTXS-13O human primary ovarian cancer xenografts
Assay: In vivo antitumor activity of Compound 1 in combination with PARP inhibitor in Patient Derived Xenograft (PDX) model
Conditions: PHTXS-13O PDX in nude mice
Experimental: To investigate in vivo antitumor activity of Compound 1 in combination with PARP inhibitor, tests using Patient Derived Xenograft (PDX) model were conducted. Patient Derived Tumors were inoculated by the following Method.
Method: Patient Derived Tumors were maintained in nude mice by subcutaneous inoculation of tumor pieces (approx. 2×2×2 mm) into nude mice. Mice with tumor size of approximately 130 mm^3 (e.g., 125-130 mm^3) for xenograft studies were randomly assigned to dose groups on the day (Day 0) before start date of dosing.
Compound 1 (crystalline form I) was suspended in solution comprising 0.5 w/v % methylcellulose and administered orally to mice.
Tumor size was measured by caliper and tumor volume was estimated using the equation V=(LW^2)/2, where L and W are tumor length and width, respectively and reported in cubic millimeters.
Statistical analyses of combination effect for tumor growth was conducted as follows; […]
For synergy analyses, the observed differences in the log tumor values were used to calculate AUC values for each animal In instances when an animal in a treatment group was removed from the study, the last observed tumor value was carried forward through all subsequent time points. The AUC for the control, or vehicle, group was calculated using the predicted values from the pairwise models described above. […]

Structure (SMILES): Cc1[nH]ncc1-c1cc2nc([C@@H]3CC4CCN3CC4)[nH]c(=O)c2s1 [Compound 1, 2-[(2S)-1-azabicyclo[2.2.2]oct-2-yl]-6-(3-methyl-1H-pyrazol-4-yl)thieno[3,2-d]pyrimidin-4(3H)-one]
- antitumor activity (tumor volume) of Compound 1 combined with olaparib (Compound 1 40 or 60 mg/kg once daily orally Day 1-14 + olaparib 25 or 50 mg/kg daily orally Days 1-14, compared to either single treatment alone (FIG. 2)): good antitumor efficacy; also recorded: strong antitumor activity
- antitumor activity (tumor volume) of Compound 1 combined with niraparib (Compound 1 40 or 60 mg/kg once daily orally Day 1-21 + niraparib 25 or 50 mg/kg daily orally Days 1-21, compared to either single treatment alone (FIG. 1)): good antitumor efficacy; also recorded: strong antitumor activity
